The test system of series [1] is HIV-1 (MT4). Kind of series: Anti-HIV effect on MT4 cells, virus antigen expression (immunoenzymatic method). The series is classed as cell-based. The source says:
The virus used was HIV-1 which had been obtained from Professor Montagnier of the Pastear Institute, France. The virus titer used in the experiment was 1×10^4 TCID50 /ml. The cell culture used was CEM cell line which was cultivated in the HIV laboratory of Institute of Virology, Chinese Academy of Preventive Medicine, for cultivation storage of HIV-1.
The compounds used in the experiment were qinghaosu, dihydroqinghaosu, Artesunate, Artemether, dihydroqinghaosu-methylcarbamate, dihydroqinghaosu-benzenecarbamate, qinghaosu-morpholinyl propylether maleate, dihydroqinghaosu-diethyl amino ethyl ether maleate, deoxyqinghaosu-morpholinyl ethyl ether maleate, qinghaosu-morpholinyl propanol ether maleate, qinghaosu-3,5-dimonpholinyl methyl-4-hydroxy benzyl ether maleate, dihydroqinghaosu-m-chlorobenzoate, qinghaosu-3-pyrrolidinylmethyl-4-hydroxybenzoate oxalate, and qinghaosu-3-morpholinylmethyl-4-hydroxybenzoate oxalate. […] The concentration of the original solution of these compounds were all 1 mg/ml.
(§1) a. Freshly cultured MT4 cells (5×10^5 /ml) were co-cultivated with the virus fluid (10^3 TCID50 /ml) in a CO2 incubator at 37° C. for 1-1.5 hours. RPMI 1640 complete medium (containing 10% Bovine serum and antibiotics, such as penicillin) was used to wash the unbound virus.
(§2) Complete medium was added to correct the concentration for use.
(§3) The experiment was carried out on the plates with 96 wells. 0.1 ml of the above-mentioned infected MT4 cell suspension was added into each well, and then 0.1 ml of various concentrations of the drugs were added. […] Each concentration of the drugs was added into two wells. Both the experiment group and the control group were incubated in a CO2 incubator at 37° C. The drug solution were changed 3 days later, and the following observations were carried out 6 days afterwards.
b. Observation on the growth situation of cells. Trypan blue dye was used to observe the quantity of live cells in each group.
(§4) c. Determination of the virus antigen expression. The immunoenzymatic method was used to examine the virus antigen expression. Cells from each group were separately smeared in two wells. They were fixed with cold acetone, HIV-positive serum was dropped into the wells. After incubated in a CO2 incubator at 37° C. for 30 minutes, they were washed with PBS for 3 times. Enzyme-labelled SPA was dropped into the wells. They were incubated in the same condition for 30 minutes, washed with PBS for 3 times, and then put in substrate solution to stain for 2-3 minutes, washed with distilled water, and observed under microscope. Normal cells were colorless, whereas virus-carrying cells appeared browrish red.
The mark used were as follows:
The experiment was repeated two to three times.
The concentration of the original fluid of these compounds were all 1 mg/ml. 0.1 ml was taken and added into 0.1 ml of virus-carrying cell suspension, thus the reaction concentrations were as follows: in the original fluid group, 0.1 mg/0.2 ml, i.e., 0.5 mg/ml; in 1×10^-1group, 0.05 mg/ml; in 1×10^-2 group, 0.005 mg/ml; in 1×10^-3 group, 0.0005 mg/ml, i.e., 0.5 μg/ml; and on the analogy of this.

For series [2], the system named is U937 HIV-1. Put plainly: Inhibition effect on HIV-1 infected U937 cells (macrophage cell line), HIV antigen test (IE). Conditions: for Antigen test (IE): U937 HIV-1. Format: cell-based. On the procedure: as §1, §2, §3, §4
(§5) Furthermore, a part of the compounds according to the present invention were used to test their inhibition effect on U937 cell line (macrophage cell line)according to the methods in Experiment 1.

For series [3], the system named is U937 HIV-1. Put plainly: Inhibition effect on HIV-1 infected U937 cells, activity of reverse transcriptase. Format: cell-based. The following applies: control 24502.
From the text: as §5

Series [4] concerns HIV. Conditions: cited from earlier work.
Series [5] has as its system virus within infected macrophages. The following applies: cited from earlier work.
The conditions of series [6]: cited from earlier work.
Series [7] has as its system Plasmodium Berghei. Kind of series: Peters' four day inhibition test in mice, erythrocytic stage of Plasmodium Berghei. Format: in vivo. Conditions: once a day D0-D3, Hybrid Kunming strain mice, read-out: SD50 (the source's name). The source says: Effect on Erythrocytic Stage of Plasmodium Berghei 1. "Four day inhibition test" in mice To determinate the SD50 with Peters' "four day inhibition test". Hybrid Kunming strain mice, body weight 18-22 g, were inculated with 1×10^7 parasites infected RBC intraperitoneally on D0. Dihydroqinghaosu-methylcarbamate, dihydroqinghaosu-butylcarbamate, dihydroqinghaosu-benzenecarbamate and dihydroqinghaosu-4-nitrobenzenecarbamate with different concentration were given once a day from D0 -D3. Blood smears from mouse's tail were made on D4, stained with Gimsa reagent and examined under microscope to count the infected and uninfected erthrocyte to get infected rate. Inhibitory rates of different dosages were calculated by following formula. The SD50 was calculated by the simplified probit analysis: [formula]

Series [8] in a line: Acute toxicity in mice. Format: in vivo. Conditions: for LD50: mouse, in vivo, po. On the procedure:
Animals: Hybrid swiss strain mice (provided by Animal House of Institute of Chinese Mateia Media, China Academy of Traditional Chinese Medicine), 20-22 grams, less than 6 weeks age of both sexes fed in laboretory for 3-5 days observation and a random taking food and drinking.
Drugs: Dihydroqinghaosu-methylcarbamate and dihydroqinghaosu-benzenecarbamate.
Above two drugs in powder form were dissolved into peanut oil. The biggest dose were 2000 mg/kg and 2161 mg/kg respectively. The distances between two dose groups were 0.7 and 0.68 respectively, with 5 dose groups each drugs.
Method: The mice were given single dose of above compound respectively intragastrically, the acute intoxication manifestrations were observed the LD value (LD5, LD50 and LD95) and B value were determined by three days mortality.

The nature of series [9]: Subacute toxicologic study. The following applies: in vivo, read-out: basic safe dosage.
For series [10], the system named is HIV-infected macrophages. Conditions: cited from earlier work.
Setting [11] is: F + M, single dose intragastrically.
[12] abbreviates: F, single dose intragastrically.
Setting [13] is: M, single dose intragastrically.

In the case of `Cc1cn([C@H]2C[C@H](N=[N+]=[N-])[C@@H](CO)O2)c(=O)[nH]c1=O` [AZT, 3'-azido-3'-deoxythymidine, reference compound], the “effect on HIV-1 (MT4), virus antigen expression” value in series [1] (1 × 10^-1 (50 μg/ml)), in series [1] (1 × 10^-2 (5 μg/ml)) and in series [1] (1 × 10^-3 (0.5 μg/ml)) was “- (positive cells were not seen in the whole well)” throughout. Besides, in series [1] (1×10^-1, 1×10^-2, 1×10^-3 group), the “virus-carrying (pink) cells on the smear” value is “entirely no pink cells”. In series [2] (1 μg/ml), the “Antigen test (IE)” value is on record as “+ (there were 2-3 or more positive cells in the whole well)”. For the same compound, in series [2] (from Table 2), the “inhibition on U937 infected HIV-1” value is given as “does not show the inhibition”. The “Activity of reverse transcription (CPM)” value in [3] (1 μg/ml) was found to be 10865 CPM. For the same compound, the “anti-HIV activity in vitro” value in series [4] was “found to possess anti-HIV activity in vitro”. Further, in [5], the “inhibitory effect on the virus within infected macrophages” value is “does not exert inhibitory effect on the virus within infected macrophages”. For the same compound, the toxicity after use result in series [6] (4-6 weeks after the use of AZT) is “inhibition of bone marrow appears, then severe anemia develops”.

In general, LD50 refers to the dose expected to kill half of the subjects tested. `CC1CCC2C(C)C(OC(=O)Nc3ccccc3)OC3OC4(C)CCC1C32OO4` (stereo not shown) [Dihydroqinghaosu-benzenecarbamate]: the “effect on HIV-1 (MT4), virus antigen expression” value in series [1] (1 × 10^-1 (50 μg/ml)) is listed as “- (positive cells were not seen in the whole well)”; in [1] (1 × 10^-2 (5 μg/ml)) it was “- (positive cells were not seen in the whole well)”; in series [1] (1 × 10^-3 (0.5 μg/ml)), “- (positive cells were not seen in the whole well)”; in series [1] (1 × 10^-4 (0.05 μg/ml)) it was “± (there were only 1-2 doubtful positive cells in whole well)”. The “inhibition on HIV” value in series [1] (according to Table 1) was “distinct inhibition on HIV”. In [2] (50 μg/ml), the “Antigen test (IE)” value is recorded as “- (positive cells were not seen in the whole well)”. In addition, the “Activity of reverse transcription (CPM)” value in series [3] (50 μg/ml) is reported as 2305 CPM. For the same compound, the ED50 in series [7] was 0.29 mg/kg. The “Death distribution of mice, exp./death” value in series [8] (480 mg/kg, female) is 6/0; in series [8] (480 mg/kg, female + male), 12/1; in series [8] (480 mg/kg, male), 6/1; in series [8] (686 mg/kg, female) it was 6/1; in series [8] (686 mg/kg, female + male) it was 12/3; in series [8] (686 mg/kg, male) it was 6/2. The “Death distribution of mice, exp./death” value was 6/2 in series [8] (980 mg/kg, female); 12/4 in [8] (980 mg/kg, female + male); 6/2 in series [8] (980 mg/kg, male); 6/4 in series [8] (1400 mg/kg, female); 12/7 in series [8] (1400 mg/kg, female + male); 6/3 in series [8] (1400 mg/kg, male). Further, the “Death distribution of mice, exp./death” value is 6/6 in series [8] (2000 mg/kg, female); 12/12 in [8] (2000 mg/kg, female + male); 6/6 in series [8] (2000 mg/kg, male). Besides, the LD5 in series [8] (setting [11]) is recorded as 463.33 mg/kg; in series [8] (setting [12]) it was 603.91 mg/kg; in series [8] (setting [13]), 352.10 mg/kg. For the same compound, the values for the LD95 in series [8] (setting [11]), in series [8] (setting [12]) and in series [8] (setting [13]) were 2452.08 mg/kg, 1993.51 mg/kg and 3069.59 mg/kg, respectively. Further, the “slope (B)” value in [8] (setting [11]) stood at 4.546; in series [8] (setting [12]), 6.343; in series [8] (setting [13]) it was 3.498. Moreover, the LD50 in [8] (setting [11]) turned out to be 1070 mg/kg; in series [8] (setting [12]), 1100 mg/kg; in [8] (P.O. (per os)), 1060 mg/kg; in [8] (single dose intragastrically), 1040 mg/kg. For the same compound, in series [9], the NOAEL stood at 54 mg/kg/day.

In the case of Trichosanthin, in series [10], the “toxic substance from treated HIV-infected macrophages” value is “produced and released a soluble toxic substance which might exert serious destructive effect to human brain cells”. Further, the “neurotoxicity in clinical trial” value in [6] (clinical trial) is “neurotoxicity in clinical trial, and in severe cases temporary dementia and even coma appeared”.

The values above are taken from patent US5726203A, “Qinghaosu derivatives against AIDS” (priority 1993, dated 1998).
